What was measured:
[1] = system: GZ89 H3N2 virus; parameters: species or system mice; details: mouse, in vivo
[2] = system: CA09 H1N1 virus
[3] = system: CA09 H1N1 vaccine; type: in vivo, C57BL/6 mice; details: 20 μg, 2 weeks
[4] = system: SH13 H7N9 virus; parameters: species or system mice; details: mouse, in vivo
[5] = system: gap junctions between AMs and AECs; assay: Gap junction blockade in vivo; parameters: species or system mice; details: for effect on PS-GAMP adjuvanticity (IgG2c): i.p. prior to and during immunization
[6] = system: immune mediators (Ifnb1, Gmcsf, Tnf, Ccl2, Ccl3, Ccl5, Cxcl10); details: mouse, in vivo
[7] = mouse, in vivo
[8] = i.p. inhibitor, i.n. SRB-nano4, 12 h

## CCCCCCCCc1ccc(CCC(N)(CO)CO)cc1 [FTY720]
[1]
  effect on cross-protection elicited by vaccine/PS-GAMP: not compromised

## poly IC
[2]; mouse, in vivo
  body weight loss after 10×LD50 CA09 H1N1 challenge: severe body weight loss
  protection against 10×LD50 CA09 H1N1 viral challenge: 33%
[3]
  lower efficacy in augmenting BALF IgA (vs PS-GAMP): 30 fold
  lower efficacy in augmenting HAI titers (vs PS-GAMP): fivefold
  lower efficacy in augmenting serum IgG (vs PS-GAMP): 100 fold
[4]
  heterosubtypic protection from SH13 H7N9 challenge: failed to provoke significant heterosubtypic protection

## CC1(C)[C@@H](OC(=O)CCC(=O)O)CC[C@]2(C)[C@H]3C(=O)C=C4[C@@H]5C[C@@](C)(C(=O)O)CC[C@]5(C)CC[C@@]4(C)[C@]3(C)CC[C@@H]12 [CBX, carbenoxolone]
[5]; [8]
  SRB uptake by AMs: did not affect SRB uptake by AMs
  entry of SRB into AECs: blocked
[5]
  effect on PS-GAMP adjuvanticity (IgG2c): blunted substantially
[5]; lungs receiving PS-GAMP, 12 h
  Ifnb1 transcription in AMs: increasing Ifnb1 transcription in AMs
  transcription of Ifnb1 and Gmcsf in AECs: greatly diminished
[5]; vaccine + PS-GAMP, lung, 24 h
  reduction of recruitment of CD11b+ DCs: 50%

## Cc1ccc(Cl)c(Nc2ccccc2C(=O)O)c1Cl [meclofenamate]
[5]
  effect on PS-GAMP adjuvanticity (IgG2c): blunted substantially

## cholera toxin [CT]
[6]
  cytokine production in the brain: measurable cytokine mRNA expression in the brains of some mice
[7]
  histology of lungs, nasal tissue, and brains: massive inflammatory cell infiltrates in the lung

## CCOC(=O)C1=C[C@@H](OC(CC)CC)[C@H](NC(C)=O)[C@@H](N)C1 [oseltamivir]
[2]; unimmunized mice, 20 mg/kg/day
  control of CA09 H1N1 viral infection: effectively control CA09H1N1

## CC(=O)c1ccc2c(c1)[C@H](NC(=O)c1ccc(F)c(Cl)c1)[C@H](O)C(C)(C)O2 [tonabersat]
[5]
  effect on PS-GAMP adjuvanticity (IgG2c): blunted substantially

From patent publication US20220362153A1, “COMPOSITIONS AND METHODS FOR PULMONARY SURFACTANT-BIOMIMETIC NANOPARTICLES” (priority 2019, published 2022)
